Broadly, the inhibition is the percentage by which the read-out fell short of the control. In general, IC50 refers to the concentration that gives 50% inhibition.

Drawing on patent US9440941B2, “Substituted chroman-6-yloxy-cycloalkanes and their use as pharmaceuticals” (SANOFI, priority 2013, dated 2016), this text covers inhibition and IC50 for 39 compounds.

The first assay deals with T1, human NCX1 (Homo sapiens, UniProt P32418).
T1 construct: expressed in transfected cells
Kind of assay: Inhibition of Ca2+ influx into cells (NCX1 reverse mode), FLIPR Fluo-4 assay. The conditions noted are these: at 10 μM; NCX1 reverse mode; IC50 value not determined; read-out: NCX1rv inhibition in % at 10 μM. The format is cell-based. From the text: The sodium/calcium exchanger NCX1 can transport calcium ions and sodium ions through the cell membrane. The transport is an exchange of Ca^2+ and Na^+ in two directions depending on membrane potential and ion gradients. At the first direction, named “forward mode” or “calcium export mode”, Ca^2+ is transported out of the cell and Na^+ is transported into the cell. At the other direction, named “reverse mode” or “calcium import mode”, the transport directions are vice versa. The effect of the compounds of the invention on NCX1 was determined in CHO cells stably expressing human NCX1 (gene symbol SLC8A1; cf. WO 2009/115238). The assay is based on the monitoring of intracellular Ca^2+ concentrations using a calcium-sensitive fluorescence dye which is detected by means of a FLIPR device (Fluorimetric Imaging Plate Reader, Molecular Devices).
Assay Technology—Reverse Mode
The assay is based on the monitoring of intracellular Ca^2+ concentrations using the calcium-sensitive dye Fluo-4. CHO cells expressing NCX1 were loaded with the dye by means of the acetoxymethyl ester Fluo-4 AM (Invitrogen, F14202), which is cleaved intracellularly by esterase activity to yield the charged species of free Fluo-4. After an preincubation period with the test compound, Gramicidine (Sigma, G5002) was added. Gramicidine is an ionophor for Na^+ ions mediating an increase of intracellular Na^+ ions. Consequently, intracellular Na^+ ions are exchanged against extracellular Ca^2+ ions (Ca^2+ influx, reverse mode). The intracellular elevation of Ca^2+ ions was detected by measuring the fluorescence of Fluo-4 at a wavelength of 520 nm by a FLIPR device.
Briefly, for the reverse mode transport assay 18000 cells per well were seeded into a 96 well microplate (Corning COSTAR 3904) and incubated overnight in culture medium (1× Nut Mix F12 (Ham) (Gibco, 21765-029); 10% (v/v) fetal calf serum (PAA Gold, A15-649); 450 μg/ml Geneticin (Gibco, 10131-027)). A total volume of 100 μl medium per well was used. For the preparation of the FLIPR assay, the culture medium was removed from the plates and 100 μl of dye solution (2 μM Fluo-4 AM; 0.02% (v/v) Pluronic F-127 (20%, Invitrogen, P3000MP); 0.1% (v/v) bovine albumin solution (30% (v/v), Sigma, A9205) in assay buffer (133.8 mM NaCl (Sigma, S5886); 4.7 mM KCl (Sigma, P3911); 1.25 mM MgCl2 (Merck, 1.05833.0250); 3.5 mM CaCl2 (Merck, 1.02083.0250); 5 mM glucose (Sigma, G7021); 10 mM Hepes (Sigma, H4034); 0.01% (v/v) Pluronic F-127 (5%, Sigma, P2443); 2.5 mM Probenecid (Maybridge, SB00915EB); pH 7.4)) were added into each well. The plates were incubated in the dark at room temperature for 80 min. After the incubation period, the dye solution was removed and the wells were washed with 100 μl of assay buffer. Then 80 μl of a solution of the test compound in assay buffer in different concentrations were added into the wells. The plates were incubated at 16° C. for 45 min. Meanwhile a 60 μM solution of Gramicidine in assay buffer (4° C.) was prepared and stored in the wells of a 96 well microplate (96 well microplate, polypropylene, U-shape (Greiner Bio-One, 650201)) at 4° C. until measurement was started. The fluorescence monitoring was performed at 240 measuring points with measurement intervals of 2 sec. After the fifth measuring point, 40 μl of the Gramicidine solution were added to each well of the assay plates to give a final Gramicidine concentration of 20 μM. For the determination of the IC50 values the minimal fluorescence value was subtracted from the maximal fluorescence value for all measuring points. The calculation of the IC50 values via the percentage inhibitions of Ca^2+ influx into cells (reverse mode) effected by the test compound was performed in Biost@t Speed 2.0.
With `COCC(C)NC1CCC(Oc2ccc3c(c2)CCC(c2ccccc2C)O3)CC1` (stereo not drawn) [compound 188], the inhibition at 10 µM came out at 96%. Same read-out and setting: to `Cc1ccccc1C1CCc2cc(OC3CCC(NCCCOC(C)C)CC3)ccc2O1` (stereo not drawn) [compound 190] belongs 93%.

Staying with this assay, now noted: inhibition of NCX1 in reverse mode (Ca2+ influx into cells); read-out: NCX1rv IC50.
For the compound `NC1(Cc2ccccc2)CCC(Oc2ccc3c(c2)CCC(c2ccccc2)O3)CC1` (single isomer, unassigned) [compound 46, 1-Benzyl-4-(2-phenylchroman-6-yloxy)-cyclohexylamine, stereoisomeric mixture 2], the IC50 was 11000 nM. Turning to `Cc1cc(CN[C@H]2CC[C@H](Oc3ccc4c(c3)CCC(c3ccccc3)O4)CC2)nn1C` (stereo partly drawn) [compound 56, N-(1,5-Dimethylpyrazol-3-ylmethyl)-[trans-4-(2-phenylchroman-6-yloxy)]-cyclohexylamine], the IC50 turned out to be 500 nM.

Take `Cc1noc(CCC(=O)N[C@H]2CC[C@H](Oc3ccc4c(c3)CCC(c3ccccc3F)O4)CC2)n1` (relative stereo) [compound 248]: the IC50 was 200 nM. Same read-out and setting: to `Cc1nc(CC(=O)N[C@H]2CC[C@H](Oc3ccc4c(c3)CCC(c3ccccc3F)O4)CC2)c(C)s1` (relative stereo) [compound 245] belongs 300 nM; to `Cc1cc(CN(Cc2cc(C)on2)[C@H]2CC[C@H](Oc3ccc4c(c3)CCC(c3ccccc3)O4)CC2)no1` (stereo partly drawn) [compound 82, N,N-Bis(5-methylisoxazol-3-ylmethyl)-[trans-4-(2-phenylchroman-6-yloxy)]-cyclohexylamine], 3800 nM; to `CCCNC1CCC(Oc2ccc3c(c2)CCC(c2ccccc2F)O3)CC1` (stereo not drawn) [compound 213], 1400 nM.

In the case of `Cc1cc(C)n(CC(=O)N[C@H]2CC[C@H](Oc3ccc4c(c3)CCC(c3ccccc3)O4)CC2)n1` (relative stereo) [compound 41], the IC50 is 300 nM. On to `CCC(COC)NC1CCC(Oc2ccc3c(c2)CCC(c2ccccc2F)O3)CC1` (stereo not drawn) [compound 222], for which the IC50 amounted to 3100 nM.

Consider `Cc1c(F)cccc1C1CCc2cc(OC3CCC(C(=O)NCCO)CC3)ccc2O1` (stereo not drawn) [compound 262], for which the IC50 was found to be 200 nM.

Regarding `Cn1ccc(CN(Cc2ccn(C)n2)[C@H]2CC[C@H](Oc3ccc4c(c3)CCC(c3ccccc3)O4)CC2)n1` (stereo partly drawn) [compound 84, N,N-Bis(1-methylpyrazol-3-ylmethyl)-[trans-4-(2-phenylchroman-6-yloxy)]-cyclohexylamine], the 50% inhibitory concentration (IC50) stood at 800 nM.

For `O=C(N[C@H]1CC[C@H](Oc2ccc3c(c2)CCC(c2ccccc2)O3)CC1)C1CC1` (relative stereo) [compound 26], the IC50 came out at 100 nM. Regarding `O=C(NCCO)C1CCC(Oc2ccc3c(c2Cl)CCC(c2ccccc2)O3)CC1` (stereo not drawn) [compound 291], the IC50 came to 1100 nM. Still for that read-out and setting: to `CC(C)CN[C@H]1CC[C@H](Oc2ccc3c(c2)CCC(c2ccccc2)O3)CC1` (stereo partly drawn) [compound 65, N-Isobutyl-[trans-4-(2-phenylchroman-6-yloxy)]-cyclohexylamine] belongs 400 nM. The same measure, in the same setting: to `c1ccc(C2CCc3cc(O[C@H]4CC[C@H](N(CC5CC5)CC5CC5)CC4)ccc3O2)cc1` (stereo partly drawn) [compound 80, N,N-Bis(cyclopropylmethyl)-[trans-4-(2-phenylchroman-6-yloxy)]-cyclohexylamine] belongs 500 nM; to `Cc1nc(CC(=O)N[C@H]2CC[C@H](Oc3ccc4c(c3)CCC(c3ccccc3)O4)CC2)c(C)s1` (relative stereo) [compound 40], 300 nM. Still for that read-out and setting: to `Cc1nn(C)c(C)c1CN[C@H]1CC[C@H](Oc2ccc3c(c2)CCC(c2ccccc2)O3)CC1` (relative stereo) [compound 60] belongs 400 nM.

As to `CCn1nccc1CNC(=O)C1CCC(Oc2ccc3c(c2)CCC(c2cccc(F)c2OC)O3)CC1` (stereo not drawn) [compound 300], the IC50 is 400 nM. The same measure, in the same setting: to `Fc1ccccc1C1CCc2cc(OC3CCC(NCCCC4CCOC4)CC3)ccc2O1` (stereo not drawn) [compound 228] belongs 2200 nM; to “N-Cyclopentyl-4-(2-phenylchroman-6-yloxy)-cyclohexylamine [compound 143]”, 800 nM. For `Cc1c(F)cccc1C1CCc2cc(OC3CCC(C(=O)NC4CCCCC4O)CC3)ccc2O1` (single isomer, unassigned) [compound 287], the IC50 is 100 nM. Same read-out and setting: to `CCn1nccc1CNC(=O)C1CCC(Oc2ccc3c(c2)CCC(c2ccccc2)O3)CC1` (single isomer, unassigned; stereoisomer 2) [compound 94, N-(2-Ethyl-2H-pyrazol-3-ylmethyl)-[cis-4-(2-phenylchroman-6-yloxy)]-cyclohexanecarboxamide, stereoisomer 2 (2)] belongs 1600 nM. The same measure, in the same setting: to “N-Cyclobutyl-4-(2-phenylchroman-6-yloxy)-cyclohexylamine [compound 142]” belongs 600 nM. Same read-out and setting: to `Fc1ccccc1C1CCc2cc(OC3CCC(NCCC4CCOCC4)CC3)ccc2O1` (stereo not drawn) [compound 220] belongs 2400 nM. For the compound `CCCC(C)NC1CCC(Oc2ccc3c(c2)CCC(c2ccccc2)O3)CC1` (stereo not drawn) [compound 106], the IC50 is 800 nM. The same measure, in the same setting: to “N-[2-(1,1-Dioxo-thiomorpholin-4-yl)ethyl]-4-(2-phenylchroman-6-yloxy)-cyclohexylamine [compound 138]” belongs 600 nM; to `Cc1ccccc1C1CCc2cc(O[C@H]3CC[C@H](N(CC4CCOC4)CC4CCOC4)CC3)ccc2O1` (relative stereo) [compound 155, Bis-(tetrahydrofuran-3-ylmethyl)-[trans-4-(2-o-tolyl-chroman-6-yloxy)-cyclohexyl]-amine], 5300 nM; to `CC(=O)OC1CCC(Oc2ccc3c(c2)CCC(c2ccccc2)O3)CC1` (stereo not drawn) [compound 78, [4-(2-Phenylchroman-6-yloxy)cyclohexyl] acetate], 600 nM. The same measure, in the same setting: to `CCCCNC1CCC(Oc2ccc3c(c2)CCC(c2ccccc2F)O3)CC1` (stereo not drawn) [compound 230] belongs 2900 nM; to `Cc1c(F)cccc1C1CCc2cc(OC3CCC(C(=O)NCC(N)=O)CC3)ccc2O1` (stereo not drawn) [compound 272], 400 nM.

In the case of `O=C1CCC(Oc2ccc3c(c2)CCC(c2ccccc2)O3)CC1` (stereo not drawn) [compound 77, 4-(2-Phenylchroman-6-yloxy)cyclohexanone], the IC50 was 400 nM. Still for that read-out and setting: to `c1ccc(C2CCc3cc(O[C@H]4CC[C@H](N(Cc5ccoc5)Cc5ccoc5)CC4)ccc3O2)cc1` (stereo partly drawn) [compound 85, N,N-Bis(furan-3-ylmethyl)-[trans-4-(2-phenylchroman-6-yloxy)]-cyclohexylamine] belongs 800 nM. In the case of `c1ccc(C2CCc3cc(O[C@H]4CC[C@H](NCc5cccs5)CC4)ccc3O2)cc1` (relative stereo) [compound 51], the IC50 was 600 nM. The same measure, in the same setting: to `CC(=O)NC[C@H]1CC[C@@H](Oc2ccc3c(c2)CCC(c2ccccc2)O3)CC1` (relative stereo) [compound 4] belongs 400 nM; to `O=C(NCCO)C1CCC(Oc2ccc3c(c2)CC[C@H](c2ccccc2)O3)CC1` (stereo partly drawn) [compound 99], 300 nM; to `CCn1nccc1CNC(=O)C1CCC(Oc2ccc3c(c2Cl)CCC(c2ccccc2)O3)CC1` (stereo not drawn) [compound 293], 4700 nM. The same measure, in the same setting: to “4-(2-Phenylchroman-6-yloxy)-N-(2-thiomorpholin-4-ylethyl)cyclohexylamine [compound 139]” belongs 1000 nM; to `CCC(C)CN[C@H]1CC[C@H](Oc2ccc3c(c2)CCC(c2ccccc2)O3)CC1` (stereo partly drawn) [compound 70, N-(2-methylbutyl)-[trans-4-(2-phenylchroman-6-yloxy)]-cyclohexylamine], 500 nM.
